From ChEMBL document CHEMBL1201862, “PubChem BioAssay data set” (2004)
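Values below derive from 48-hour exposures of cells grown in 96-well plates, with endpoints linearly interpolated between the two concentrations bracketing the appropriate inhibition level. Abbreviation: GI50, concentration required for 50% inhibition of growth.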 Calls of active or inactive are those of the source. Rule as the data show it: active = GI50 up to about 1.1 µM and inactive = higher.

Assays:
Assay in all cases: inhibition of tumour cell growth, NCI panel, 48 h
HCC 2998 = tested on: HCC 2998
OVCAR-4 = tested on: OVCAR-4
SK-MEL-28 = tested on: SK-MEL-28
SF-539 = tested on: SF-539
OVCAR-3 = tested on: OVCAR-3
CAKI-1 = tested on: CAKI-1
UACC-257 = tested on: UACC-257
NCI-H460 = tested on: NCI-H460
HCT-116 = tested on: HCT-116
MDA-MB-231 = tested on: MDA-MB-231
A498 = tested on: A498
SW-620 = tested on: SW-620
K562 = tested on: K562
MDA-MB-435 = tested on: MDA-MB-435
SF-295 = tested on: SF-295
HCT-15 = tested on: HCT-15
SK-OV-3 = tested on: SK-OV-3
MOLT-4 = tested on: MOLT-4
COLO 205 = tested on: COLO 205
NCI-H522 = tested on: NCI-H522

Structure (SMILES) | GI50 (HCC 2998) | GI50 (OVCAR-4) | GI50 (SK-MEL-28) | GI50 (SF-539) | GI50 (OVCAR-3) | GI50 (CAKI-1) | GI50 (UACC-257) | GI50 (NCI-H460) | GI50 (HCT-116) | GI50 (MDA-MB-231) | GI50 (A498) | GI50 (SW-620) | GI50 (K562) | GI50 (MDA-MB-435) | GI50 (SF-295) | GI50 (HCT-15) [µM] | GI50 (SK-OV-3) | GI50 (MOLT-4) | GI50 (COLO 205) | GI50 (NCI-H522)
COC(=O)C1=C(C(=O)OC)SC2(S1)C(C(=O)OC)=C(C(=O)OC)Sc1c2ssc1=O | 1.31 µM (inactive) | 1.22 µM (inactive) | 1.46 µM (inactive) | 1.15 µM (inactive) | 0.904 µM (active) | 1.43 µM (inactive) | 1.51 µM (inactive) | 2.88 µM (inactive) | 0.459 µM (active) | 1.67 µM (inactive) | 1.64 µM (inactive) | 0.661 µM (active) | 0.547 µM (active) | 1.57 µM (inactive) | 11.4 µM (inactive) | 0.369 | 8.97 µM (inactive) | 0.353 µM (active) | 0.524 µM (active) | 0.177 µM (active)
CSC(=N\c1ccccc1)/N=C(\SCc1ccccc1)N(C)C | 0.359 µM (active) | 0.889 µM (active) | 0.581 µM (active) | 1.28 µM (inactive) | 0.869 µM (active) | 0.927 µM (active) | 1.57 µM (inactive) | 0.161 µM (active) | 0.292 µM (active) | 1.17 µM (inactive) | 1.65 µM (inactive) | 0.312 µM (active) | 0.05 µM (active) | 1.23 µM (inactive) | 1.43 µM (inactive) | 0.463 | 3.24 µM (inactive) | 0.382 µM (active) | 0.407 µM (active) | 0.21 µM (active)
COC1N(C2CC(O)C(CO)O2)C(=O)NC(=O)C1(F)Br (stereo not drawn) | 0.887 µM (active) | > 50 µM (inactive) | 9.86 µM (inactive) | 0.239 µM (active) | 10.7 µM (inactive) | > 19.9 µM (inactive) | 70.5 µM (inactive) | 0.346 µM (active) | 7.8 µM (inactive) | > 57.1 µM (inactive) | 9.29 µM (inactive) | 32.8 µM (inactive) | 36.8 µM (inactive) | 39.6 µM (inactive) | 2.83 µM (inactive) | 13.4 | > 50 µM (inactive) | 11 µM (inactive) | 21.6 µM (inactive) | 49.1 µM (inactive)
O=P(Nc1ccccc1)(Oc1ccccc1)N1CCN(c2ccccc2)CC1 (stereo not drawn) | 16.3 µM (inactive) | 25.5 µM (inactive) | 19.7 µM (inactive) | 19.5 µM (inactive) | 18.7 µM (inactive) | 24.8 µM (inactive) | 20.9 µM (inactive) | 17.4 µM (inactive) | 16.8 µM (inactive) | 14.9 µM (inactive) | 20.2 µM (inactive) | 25.4 µM (inactive) | 49.1 µM (inactive) | 20.8 µM (inactive) | 18.4 µM (inactive) | 13.8 | 16.8 µM (inactive) | 17.9 µM (inactive) | 19.6 µM (inactive) | 4.85 µM (inactive)
O=C(Cc1ccc(Cl)c(Cl)c1)N(CCc1ccc(Cl)c(Cl)c1)CCN1CCCC1 | 1.81 µM (inactive) | 2.19 µM (inactive) | 1.43 µM (inactive) | 1.75 µM (inactive) | 2.26 µM (inactive) | 1.67 µM (inactive) | 1.91 µM (inactive) | 1.85 µM (inactive) | 1.66 µM (inactive) | 1.76 µM (inactive) | 1.85 µM (inactive) | 1.53 µM (inactive) | 1.87 µM (inactive) | 1.77 µM (inactive) | 1.96 µM (inactive) | 1.96 | 2.69 µM (inactive) | 1.34 µM (inactive) | 1.68 µM (inactive) | 1.77 µM (inactive)
CN(N=O)C(=O)Nc1c[nH]c(=O)[nH]c1=O | > 100 µM (inactive) | > 100 µM (inactive) | > 100 µM (inactive) | > 100 µM (inactive) | > 100 µM (inactive) | > 100 µM (inactive) | > 100 µM (inactive) |  | > 100 µM (inactive) | > 100 µM (inactive) | > 100 µM (inactive) | > 100 µM (inactive) | > 100 µM (inactive) | > 100 µM (inactive) | > 100 µM (inactive) | > 100 | > 100 µM (inactive) | > 100 µM (inactive) | > 100 µM (inactive) | > 100 µM (inactive)
OC1(c2ccccc2)C2CCN(CC2)C1CN1CCOCC1 (stereo not drawn) | > 100 µM (inactive) | > 100 µM (inactive) | > 100 µM (inactive) | > 100 µM (inactive) | > 100 µM (inactive) | > 100 µM (inactive) | > 100 µM (inactive) | > 100 µM (inactive) | > 100 µM (inactive) | > 100 µM (inactive) | > 100 µM (inactive) | > 100 µM (inactive) | > 100 µM (inactive) | > 100 µM (inactive) | > 100 µM (inactive) | > 100 | > 100 µM (inactive) | > 100 µM (inactive) | > 100 µM (inactive) | > 100 µM (inactive)
Cc1cnc(NCCCN(C)C)c2c1[nH]c1ccc3cc(O)ccc3c12 | 0.326 µM (active) | 0.282 µM (active) | 1.39 µM (inactive) | 0.508 µM (active) | 0.505 µM (active) | 0.566 µM (active) | 4.6 µM (inactive) | 0.0439 µM (active) | 0.236 µM (active) | 0.879 µM (active) | 1.56 µM (inactive) | 0.166 µM (active) | 1.28 µM (inactive) | 1.1 µM (active) | 0.7 µM (active) | 4.63 | 0.569 µM (active) | 0.0181 µM (active) | 0.244 µM (active) | 0.129 µM (active)
C=C1CC2(CC(c3ccccc3OC)OC(c3ccccc3OC)C2)OC1=O (stereo not drawn) | 2.49 µM (inactive) | 4.35 µM (inactive) | 1.45 µM (inactive) | 2.15 µM (inactive) | 1.87 µM (inactive) | 2.47 µM (inactive) | 2.07 µM (inactive) | 5.75 µM (inactive) | 1.78 µM (inactive) | 1.77 µM (inactive) | 5.81 µM (inactive) | 1.72 µM (inactive) | 2.06 µM (inactive) | 1.91 µM (inactive) | 7.38 µM (inactive) | 2.28 | 12.8 µM (inactive) | 2.07 µM (inactive) | 2.36 µM (inactive) | 1.5 µM (inactive)
O=S(=O)(Oc1ccc2oc3ccccc3c2c1-c1c(OS(=O)(=O)C(F)(F)F)ccc2oc3ccccc3c12)C(F)(F)F | > 100 µM (inactive) | > 100 µM (inactive) | > 100 µM (inactive) | > 100 µM (inactive) | > 100 µM (inactive) | > 100 µM (inactive) | > 100 µM (inactive) | > 100 µM (inactive) | > 100 µM (inactive) | > 100 µM (inactive) | > 100 µM (inactive) | > 100 µM (inactive) | > 100 µM (inactive) | > 100 µM (inactive) | > 100 µM (inactive) | > 100 | > 100 µM (inactive) | > 100 µM (inactive) | > 92.3 µM (inactive) | > 100 µM (inactive)
O=C(O)CNC(=O)c1c2ccccc2nc2ccccc12 | > 100 µM (inactive) | > 100 µM (inactive) | > 100 µM (inactive) | > 100 µM (inactive) | > 100 µM (inactive) | > 100 µM (inactive) | > 100 µM (inactive) | > 100 µM (inactive) | > 100 µM (inactive) | > 100 µM (inactive) | > 100 µM (inactive) | > 100 µM (inactive) | > 100 µM (inactive) | > 100 µM (inactive) | > 100 µM (inactive) | > 100 | > 100 µM (inactive) | > 100 µM (inactive) | > 100 µM (inactive) | > 100 µM (inactive)
COc1cc2c(NCCCCCO)ncnc2c(OC)c1OC | > 100 µM (inactive) | > 100 µM (inactive) | > 100 µM (inactive) | > 100 µM (inactive) | > 100 µM (inactive) | > 100 µM (inactive) | > 100 µM (inactive) | > 100 µM (inactive) | > 100 µM (inactive) | 95.5 µM (inactive) | > 100 µM (inactive) | > 100 µM (inactive) | > 100 µM (inactive) | > 100 µM (inactive) | > 100 µM (inactive) | > 100 | > 100 µM (inactive) | > 100 µM (inactive) | > 100 µM (inactive) | > 100 µM (inactive)
C=CCc1cc(-c2cc(CC=C)c(O)c(CN(CC)CC)c2)cc(CN(CC)CC)c1O | 29 µM (inactive) | > 100 µM (inactive) | 28.6 µM (inactive) | 21.4 µM (inactive) | 64 µM (inactive) | 50.2 µM (inactive) | 23.6 µM (inactive) | 21.3 µM (inactive) | 22 µM (inactive) | 26 µM (inactive) | > 100 µM (inactive) | 25.5 µM (inactive) | 26.1 µM (inactive) | 37.2 µM (inactive) | 33 µM (inactive) | 15.8 | > 100 µM (inactive) | 39.9 µM (inactive) | 26.3 µM (inactive) | 20.6 µM (inactive)
CC(c1ccccc1)n1c2ccccc2c2c(N)ncnc21 (stereo not drawn) | 18.2 µM (inactive) | 13.6 µM (inactive) | 17.9 µM (inactive) | 17.1 µM (inactive) | 16.2 µM (inactive) | 16.1 µM (inactive) | 17.2 µM (inactive) | 24.3 µM (inactive) | 21.5 µM (inactive) | 19.1 µM (inactive) | 15.7 µM (inactive) | 22.6 µM (inactive) | 24.7 µM (inactive) | 16.9 µM (inactive) | 17 µM (inactive) | 23.4 | 14.2 µM (inactive) | 23 µM (inactive) |  | 13.6 µM (inactive)
